Counter-ions that a name gives are not always drawn.
Molecular target: MASP-2 CCP2-SP (Homo sapiens (Human), UniProt O00187)
Assay: MASP-2 co-crystallization, X-ray crystallography and structure analysis (H-bonds, van der Waals contacts);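 for Ligand-pharmacophore element distance, pharmacophore element C2: distance from averaged pharmacophore element to bound ligand; missing value means element absent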;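 for Ligand-pharmacophore element distance, pharmacophore element C3: distance from averaged pharmacophore element to bound ligand; missing value means element absent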;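 for Ligand-pharmacophore element distance, pharmacophore element C4: distance from averaged pharmacophore element to bound ligand; missing value means element absent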;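 for Ligand-pharmacophore element distance, pharmacophore element C5: distance from averaged pharmacophore element to bound ligand; missing value means element absent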
Parameters: van der Waals contact distance, MASP-2 HIS 483 atom CD2 / van der Waals contact distance, MASP-2 HIS 483 atom NE2 / van der Waals contact distance, SER 654 C to compound atom / van der Waals contact distance, SER 654 O to compound atom / van der Waals contact distance, TRP 655 C to compound atom / van der Waals contact distance, MASP-2 GLY 528 atom CA / van der Waals contact distance TRP 655 atom CZ3 / van der Waals contact distance TRP 655 atom N / van der Waals contact distance TRP 655 atom CE3 / van der Waals contact distance GLY 656 atom C / van der Waals contact distance GLY 656 atom CA / van der Waals contact distance GLY 656 atom O / van der Waals contact distance, MASP-2 TYR 607 atom CD1 / van der Waals contact distance, MASP-2 PRO 606 atom O / d(C3,CA1) / d(CA1,N1)2 / d(H4,O1) / d(H4,O2) / d(O1,O2) / d(CA1,O2) / d(CA6,O1) / d(CA6,O2) / d(CA1,C5) / d(O2,H3) / d(N2,C2) / d(CA5,N2) / d(N2,C4) / d(N2,C6) / d(N2,CA3) / d(N2,O3) / d(O4,H2): unit not given beside the values
Conditions: for Ligand-pharmacophore element distance, pharmacophore element C2 / Ligand-pharmacophore element distance, pharmacophore element C3 / Ligand-pharmacophore element distance, pharmacophore element C4 / Ligand-pharmacophore element distance, pharmacophore element C5 / Ligand-pharmacophore element distance, pharmacophore element C6 / Ligand-pharmacophore element distance, pharmacophore element C7 / Ligand-pharmacophore element distance, pharmacophore element CA1 / Ligand-pharmacophore element distance, pharmacophore element CA2 / Ligand-pharmacophore element distance, pharmacophore element CA3 / Ligand-pharmacophore element distance, pharmacophore element CA4 / Ligand-pharmacophore element distance, pharmacophore element CA5 / Ligand-pharmacophore element distance, pharmacophore element CA6: Table A4-1
In short: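 Inhibitor complexes were obtained by soaking crystals of E. coli-expressed human MASP-2 CCP2-SP constructs, then flash-cooling in liquid nitrogen. Structures solved by molecular replacement (1Q3X search model) from synchrotron diffraction; where several poses existed, only one was analyzed, and nonbonded contacts listed can include H-bonds.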

[1] = Table A5-1 pharmacophore: distance between elements, S2/S1 region
[2] = Table A5-2 pharmacophore distance, S3/S4 region
[3] = Table A7-1, between pharmacophore elements of the bound compound
[4] = Table A7-2, between pharmacophore elements of the bound compound

MASP-2 CCP2-SP, sequence (O00187 445-686): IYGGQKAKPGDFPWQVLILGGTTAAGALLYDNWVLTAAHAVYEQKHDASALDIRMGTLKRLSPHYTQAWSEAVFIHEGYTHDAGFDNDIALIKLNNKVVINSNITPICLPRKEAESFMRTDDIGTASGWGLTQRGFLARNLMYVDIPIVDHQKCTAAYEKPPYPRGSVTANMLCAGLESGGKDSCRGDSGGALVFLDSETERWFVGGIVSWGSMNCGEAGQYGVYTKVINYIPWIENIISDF
MASP-2 CCP2-SP, sequence (O00187 364-432 partner): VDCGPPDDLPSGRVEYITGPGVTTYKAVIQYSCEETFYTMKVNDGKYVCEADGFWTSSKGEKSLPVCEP

In the case of `CC(NC(=O)C(CCc1ccccc1)NCCCc1ccc(O)cc1)C(=O)NCc1ccc(C(=N)N)cc1.Cl.Cl` (centres unmarked) [1145_A], the “Ligand-pharmacophore element distance, pharmacophore element C2” value is reported as 0, the “Ligand-pharmacophore element distance, pharmacophore element C3” value is reported as 0 and the “Ligand-pharmacophore element distance, pharmacophore element C4” value is reported as 0. The “Ligand-pharmacophore element distance, pharmacophore element C5” value was 0, the “Ligand-pharmacophore element distance, pharmacophore element C6” value was 0 and the “Ligand-pharmacophore element distance, pharmacophore element C7” value was 0. For the same compound, the “Ligand-pharmacophore element distance, pharmacophore element CA1” value was 0.47, the “Ligand-pharmacophore element distance, pharmacophore element CA2” value was 0.41 and the “Ligand-pharmacophore element distance, pharmacophore element CA3” value was 1.22. For the same compound, the “Ligand-pharmacophore element distance, pharmacophore element CA4” value was 0, the “Ligand-pharmacophore element distance, pharmacophore element CA5” value was 0 and the “Ligand-pharmacophore element distance, pharmacophore element CA6” value was 0. For the same compound, the “d(CA1,N1)” value [1] was 3.54, the “d(CA1,O1)” value [1] was 4.42 and the “d(CA1,O2)” value [1] was 4.42. The “d(H4,O1)” value [1] was 4.89, the “d(H4,O2)” value [1] was 4.48 and the “d(O1,O2)” value [1] was 3.28. The “d(N2,CA2)” value [2] was 5.91, the “d(N2,CA3)” value [2] was 5.59 and the “d(N2,H1)” value [2] was 8.64. The “d(N2,O3)” value [2] was 7.97, the “d(O2,H3)” value [2] was 5.36 and the “d(O2,N2)” value [2] was 2.77. The “a(CA1, O1, O2)” value (Table A6-1 pharmacophore angle) was 111.73, the “a(O1, O2, H4)” value (Table A6-1 pharmacophore angle) was 139.31 and the “A(N1, CA1, O1) a)” value (Table A6-1 pharmacophore angle, all compounds with protonatable center N1 except Methyl-amino-pyridine) was 162.28. For the same compound, the “a(O1, O2, H3)” value (Table A6-2 pharmacophore angle) was 150.25, the “a(O1, O2, N2)” value (Table A6-2 pharmacophore angle) was 136.24 and the “a(O2, N2, CA2)” value (Table A6-2 pharmacophore angle) was 153.28. For the same compound, the “a(O2, N2, CA3)” value (Table A6-2 pharmacophore angle) was 161.48, the “a(O2, N2, H1)” value (Table A6-2 pharmacophore angle) was 168.81 and the “a(O2, N2, O3)” value (Table A6-2 pharmacophore angle) was 168.41. For the same compound, the “Pharmacophore torsion angle a(H4, O1, O2, H3)” value [3] was 48.71, the “Pharmacophore torsion angle a(H4, O1, O2, N2)” value [3] was 124.15 and the “Pharmacophore torsion angle a(N1, CA1, O2, H4)” value [3] was −128.41. The “Pharmacophore torsion angle a(O1, H4, O2, CA1)” value [3] was −59.90, the “Pharmacophore torsion angle a(O1, O2, N2, CA2)” value [4] was 140.87 and the “Pharmacophore torsion angle a(O1, O2, N2, CA3)” value [4] was −15.65. For the same compound, the “Pharmacophore torsion angle a(O1, O2, N2, H1)” value [4] was −17.10 and the “Pharmacophore torsion angle a(O1, O2, N2, O3)” value [4] was −10.98.

In the case of `C[C@H](NC(=O)[C@H](N)C1Cc2ccccc2C1)C(=O)NCc1ccc2c(N)nccc2c1` [compound 1088, (S)-2-((R)-2-Amino-2-(2,3-dihydro-1H-inden-2-yl)acetamido)-N-((1-aminoisoquinolin-6-yl)methyl)propanamide Dihydrochloride], the “H-bond distance to MASP-2 ASP 627 atom OD1” value (Table A1 (H-Bonds), ASP 627 OD1) is reported as 2.91, the “H-bond distance to MASP-2 ASP 627 atom OD2” value (Table A1 (H-Bonds), ASP 627 OD2) is reported as 3.16 and the “H-bond distance to MASP-2 GLY 656 atom N” value (Table A1 (H-Bonds), GLY 656 N) is reported as 3.22. For the same compound, the “H-bond distance to MASP-2 SER 628 atom OG” value (Table A1 (H-Bonds), SER 628 OG) was 3.16, the “H-bond distance to MASP-2 SER 654 atom O” value (Table A1 (H-Bonds), SER 654 O) was 2.89 and the “van der Waals contact distance, MASP-2 PRO 606 atom C” value (Table A2-4) was 3.89. For the same compound, the “van der Waals contact distance, MASP-2 TYR 607 atom CD1” value (Table A2-4) was 3.82, the “van der Waals contact distance, MASP-2 amino acid atom to compound atom” value (Table A2-5: TYR 607 (CE1, CE2, OH), PRO 608 (CD, CG), SER 611 (CA)) was 3.73 and the “van der Waals contact distance, MASP-2 amino acid atom to compound atom” value (Table A2-9, ARG 630, AA atoms CG, CZ) was 3.79. The “van der Waals contact distance SER 657 atom C” value (Table A2-14, MASP-2 SER 657 C, columns c12-c13 (inferred)) was 3.64.

In the case of `Cc1nc(N)ccc1CNC(=O)[C@H](C)NC(=O)[C@H]1C[C@H](Cc2ccccc2Br)CN1.O=C(O)C(F)(F)F.O=C(O)C(F)(F)F` [1372_B], the “Ligand-pharmacophore element distance, pharmacophore element C2” value is reported as 0, the “Ligand-pharmacophore element distance, pharmacophore element C3” value is reported as 0.1 and the “Ligand-pharmacophore element distance, pharmacophore element C4” value is reported as 0. The “Ligand-pharmacophore element distance, pharmacophore element C5” value was 0, the “Ligand-pharmacophore element distance, pharmacophore element C6” value was 1.46 and the “Ligand-pharmacophore element distance, pharmacophore element C7” value was 0. For the same compound, the “Ligand-pharmacophore element distance, pharmacophore element CA1” value was 0.57, the “Ligand-pharmacophore element distance, pharmacophore element CA2” value was 1.41 and the “Ligand-pharmacophore element distance, pharmacophore element CA3” value was 0. For the same compound, the “Ligand-pharmacophore element distance, pharmacophore element CA4” value was 0, the “Ligand-pharmacophore element distance, pharmacophore element CA5” value was 0 and the “Ligand-pharmacophore element distance, pharmacophore element CA6” value was 0. For the same compound, the “d(C3,CA1)” value [1] was 2.85, the “d(CA1,N1)2” value [1] was 1.38 and the “d(CA1,O1)” value [1] was 4.37. The “d(CA1,O2)” value [1] was 4.00, the “d(H4,O1)” value [1] was 4.39 and the “d(H4,O2)” value [1] was 3.91. For the same compound, the “d(O1,O2)” value [1] was 3.35, the “d(N2,C6)” value [2] was 5.56 and the “d(N2,CA2)” value [2] was 6.02. For the same compound, the “d(O2,H3)” value [2] was 2.23, the “d(O2,N2)” value [2] was 2.63 and the “a(C3, CA1, O1)” value (Table A6-1 pharmacophore angle) was 149.88. The “a(CA1, O1, O2)” value (Table A6-1 pharmacophore angle) was 107.52, the “a(O1, O2, H4)” value (Table A6-1 pharmacophore angle) was 132.88 and the “a(N1, CA1, O1) b)” value (Table A6-1 pharmacophore angle, Methyl-amino-pyridine compounds) was 174.13. The “a(O1, O2, H3)” value (Table A6-2 pharmacophore angle) was 139.74, the “a(O1, O2, N2)” value (Table A6-2 pharmacophore angle) was 143.19 and the “a(O2, N2, C6)” value (Table A6-2 pharmacophore angle) was 115.79. For the same compound, the “a(O2, N2, CA2)” value (Table A6-2 pharmacophore angle) was 157.88, the “Pharmacophore torsion angle a(C3, CA1, O1, H4)” value [3] was 25.77 and the “Pharmacophore torsion angle a(H4, O1, O2, H3)” value [3] was 99.85. The “Pharmacophore torsion angle a(H4, O1, O2, N2)” value [3] was 139.62, the “Pharmacophore torsion angle a(N1, CA1, O1, H4)” value [3] was 4.96 and the “Pharmacophore torsion angle a(O1, H4, O2, CA1)” value [3] was −82.66. The “Pharmacophore torsion angle a(O1, O2, N2, C6)” value [4] was 141.41 and the “Pharmacophore torsion angle a(O1, O2, N2, CA2)” value [4] was 109.73.
